Results published in article PMC11292009, “Mapping protein binding sites by photoreactive fragment pharmacophores” (Communications Chemistry, 2024).

How the values were obtained:
Type in all cases: binding
[1] = system: carbonic anhydrase II (CA); test: Intact protein MS photoaffinity labeling screen, carbonic anhydrase; settings: intact protein MS after 10 min irradiation
Description: (§1) Using a plate-based format with one fragment per well, each fragment was incubated with the target proteins for 15 min to allow for the formation of non-covalent interactions. […] Finally, the results were directly analyzed from the plate using intact protein mass spectrometry by observing the mass additions that correspond to successful labeling (Fig. 2c, for labeling % values see Supplementary data). The library was first characterized against three benchmark proteins like carbonic anhydrase (CA), lysozyme (Lyo), and myoglobin (Myo).

BRD4-BD1 = system: T1, BRD4-BD1; test: Intact MS photoaffinity labeling screen, BRD4-BD1 (302 nm, LCMS-TOF); settings: for MS labeling percentage, BRD4: BRD4-BD1, 302 nm 10 min; for BRD4-BD1: experimental hit status flag (0/1); for experimental hit status BRD4-BD1: 0/1 flag
T1 construct: screened the PhP library against the first bromodomain of BRD4 (BRD4-BD1); purchased GSK/GenScript
Description: as §1
(§2) The PhP library was screened against BRD4-BD1 and KRas^G12D as follows. […] The probe plate was placed on ice. 15 μL of protein stock solution (1 μM BRD4-BD1 (GSK/GenScript) or KRas^G12D (GSK/GenScript) in PBS buffer) was dispensed into wells containing fragments. The plate was left on ice for 15 min for incubation, then irradiated at 302 nm for 10 min, and centrifuged (1000 rpm, 1 min) to remove any bubbles. […] The deconvoluted spectra were analyzed using R Studio software.

KRas^G12D = system: T2, KRas^G12D; test: Intact MS photoaffinity labeling screen, KRas G12D (302 nm, LCMS-TOF); settings: for MS labeling percentage, KRas: KRas G12D, 302 nm 10 min; for KRAS-G12D: experimental hit status flag (0/1); for experimental hit status KRAS-G12D: 0/1 flag
T2 construct: purchased GSK/GenScript
Description: as §1, §2

lysozyme (Lyo) = test: Intact protein MS photoaffinity labeling screen, lysozyme; settings: intact protein MS after 10 min irradiation
Description: as §1

myoglobin (Myo) = test: Intact protein MS photoaffinity labeling screen, myoglobin; settings: intact protein MS after 10 min irradiation
Description: as §1

STAT5B-NTD [2] = system: T3, STAT5B-NTD; test: Intact MS photoaffinity labeling screen, STAT5B-NTD (365 nm, UHPLC-MS); settings: for MS labeling percentage, STAT5B: STAT5B-NTD, 365 nm 10 min, no photocatalyst; for STAT5B-NTD: experimental hit status flag (0/1); for experimental hit status STAT5B-NTD: 0/1 flag;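 on MS labeling percentage, STAT5B: 0.17 µL of 100 mM DMSO fragment stock added to the protein sample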
T3 construct: His-SUMO (N, cleaved yes); made in house; host or cells: E. coli BL21 RILP
Description: STAT5B protein in 7 µM concentration in pH 7.4 PBS buffer was pre-incubated with 0.17 µL PhP (in 100 mM DMSO solution) for 1 h at room temperature in dark. Irradiation was carried out at 4 °C for 10 min using 365 nm UV lamp.
(§3) During the analysis, the column temperature was maintained at a constant 60 °C, and a sample volume of 3 µL was injected for each analysis. Data acquisition was conducted in positive ion mode within the m/z 100–2000 (mass-to-charge ratio) range. For the full protocol and spectra of the hits, see Supplementary Note 2.

STAT5B-NTD [3] = system: T3, STAT5B-NTD; test: Intact MS labeling screen, STAT5B-NTD conjugated with photocatalyst Ir-G2-PEG3-COOH (450 nm); settings: 450 nm 10 min;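 further: 0.14 µL of 100 mM DMSO fragment stock added to the conjugate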
Description: For the photocatalysis experiments, 1.4 µL photocatalyst (in 1.4 mM DMSO solution, 10 eq) was pre-incubated with 1.5 µL coupling reagent (0.75 µL, 5.6 mM EDC (20 eq)+0.75 µL 4.2 mM NHS and 1.5 µL 2.1 mM (15 eq) BOP for 30 min in dark. 30 µL STAT5B-NTD (in 7 µM concentration) was added and incubated further at room temperature overnight or at 37 °C for 1 h in dark. After addition of 0.14 µL PhP (in 100 mM DMSO) the solution was further incubated in dark for 1 h. Irradiation was carried out using 450 nm LED lamp (7.6Vx0A) for 10 min at 4 °C.
as §3

[4] = PhP library sheet "PhP", binary flag printed as 0 or 1, key not given
[5] = hit flag 1/0, sheet PhP, photoaffinity labeling screen
[6] = sheet PhP, experimental hit status flag given as 0 or 1

| Structure (SMILES) | MS labeling percentage, CA [1] [%] | MS labeling percentage, BRD4 (BRD4-BD1) [%] | MS labeling percentage, KRas (KRas^G12D) [%] | MS labeling percentage, Lyo (lysozyme (Lyo)) [%] | MS labeling percentage, Myo (myoglobin (Myo)) [%] | MS labeling percentage, STAT5B (STAT5B-NTD [2]) [%] | MS labeling percentage, STAT5B+photocat (STAT5B-NTD [3]) [%] | BRD4-BD1 (experimental hit status) (BRD4-BD1; [5]) | KRAS-G12D (experimental hit status) (KRas^G12D; [5]) | STAT5B-NTD (experimental hit status) (STAT5B-NTD [2]; [5]) | further results |
| --- | --- | --- | --- | --- | --- | --- | --- | --- | --- | --- | --- |
| CC1(CCC(=O)NC2CCc3nc(C(C)(C)C)cn3C2)N=N1 (centres unmarked) [PhP016, CC(C)(C)c(c1)nc(n12)CCC(C2)NC(=O)CCC3(C)N=N3] | 0.6 | 0.3 | 0.2 | 0 | 0.2 | 0 | 8.9 |  |  |  | BRD4-BD1 (BRD4-BD1): 0; KRAS-G12D (KRas^G12D): 0; STAT5B-NTD (STAT5B-NTD [2]): 0 |
| Cc1nnc(CNC(=O)CCC2(C)N=N2)[nH]1 [PhP093, Cc1nnc([nH]1)CNC(=O)CCC2(C)N=N2] | 0.5 | 0.5 | 0.3 | 0 | 0.2 | 2 | 0.5 |  |  |  | BRD4-BD1 (experimental hit status) (BRD4-BD1; [4]): 0; KRAS-G12D (experimental hit status) (KRas^G12D; [4]): 0; STAT5B-NTD (experimental hit status) (STAT5B-NTD [2]; [4]): 0 |
| COC(=O)C(NC(=O)CCC1(C)N=N1)c1ccc(C)cc1 (centres unmarked) [PhP019, c1cc(C)ccc1C(C(=O)OC)NC(=O)CCC2(C)N=N2] | 0.2 | 0.3 | 0 | 0 | 0.1 | 1 | 2.7 |  |  |  | experimental hit status BRD4-BD1 (BRD4-BD1): 0; experimental hit status KRAS-G12D (KRas^G12D): 0; experimental hit status STAT5B-NTD (STAT5B-NTD [2]): 0 |
| CC1(CCC(=O)NCc2ccc(-c3cncnc3)cc2)N=N1 [PhP052, N1=NC1(C)CCC(=O)NCc2ccc(cc2)-c3cncnc3] | 1.2 | 1.5 | 1.3 | 0 | 1.3 | 1 | 11.4 | 0 | 0 | 0 |  |
| CC1(CCC(=O)Nc2cccc(-n3cnnn3)c2)N=N1 [PhP042, N1=NC1(C)CCC(=O)Nc2cccc(c2)-n3cnnn3] | 0.9 | 1 | 0.5 | 0 | 0.2 | 2 | 17.8 | 0 | 0 | 0 |  |
| COc1cc(C)nc(NC(=O)CCC2(C)N=N2)n1 [PhP074, COc1cc(C)nc(n1)NC(=O)CCC2(C)N=N2] | 0.7 | 0.4 | 0.4 | 0 | 0.4 | 1 | 1.8 |  |  |  | BRD4-BD1 (experimental hit status) (BRD4-BD1; [6]): 0; KRAS-G12D (experimental hit status) (KRas^G12D; [6]): 0; STAT5B-NTD (experimental hit status) (STAT5B-NTD [2]; [6]): 0 |
| Cc1[nH]c2ccc(CNC(=O)CCC3(C)N=N3)cc2c1C [PhP004, Cc([nH]1)c(C)c(c12)cc(cc2)CNC(=O)CCC3(C)N=N3] | 0.1 |  | 0.7 | 0 | 0.3 | 2.9 | 13 |  |  |  | BRD4-BD1 (BRD4-BD1): 0; KRAS-G12D (KRas^G12D): 0; STAT5B-NTD (STAT5B-NTD [2]): 0 |
| Cc1nc2ccccc2n1CCNC(=O)CCC1(C)N=N1 [PhP073, c1cccc(c12)n(c(n2)C)CCNC(=O)CCC3(C)N=N3] | 0 | 0.3 | 0.1 | 0 | 0.2 | 1 | 1.6 |  |  |  | BRD4-BD1 (experimental hit status) (BRD4-BD1; [6]): 0; KRAS-G12D (experimental hit status) (KRas^G12D; [6]): 0; STAT5B-NTD (experimental hit status) (STAT5B-NTD [2]; [6]): 0 |
| CC1(CCC(=O)Nc2sc3c(c2C(N)=O)CCC(C(C)(C)C)C3)N=N1 (centres unmarked) [PhP049, CC(C)(C)C(CC1)Cc(c12)sc(c2C(=O)N)NC(=O)CCC3(C)N=N3] | 0.2 | 0 | 0.1 | 0 | 0.1 | 1 | 2 | 0 | 0 | 0 |  |
| Cc1nc(NC(=O)CCC2(C)N=N2)c2cnn(-c3ccc(F)cc3)c2n1 [PhP041, c1cc(F)ccc1-n(nc2)c(c23)nc(C)nc3NC(=O)CCC4(C)N=N4] | 0.3 | 0.2 | 0.3 | 0 | 0 | 0 | 10.6 | 0 | 0 | 0 |  |
| CC1(CCC(=O)NCCN2CCN(c3ccc(C(F)(F)F)cn3)CC2)N=N1 [PhP096, N1=NC1(C)CCC(=O)NCCN2CCN(CC2)c3ccc(cn3)C(F)(F)F] | 0 | 0.3 | 0 | 0 | 0.1 | 0 | 1.1 |  |  |  | BRD4-BD1 (experimental hit status) (BRD4-BD1; [4]): 0; KRAS-G12D (experimental hit status) (KRas^G12D; [4]): 0; STAT5B-NTD (experimental hit status) (STAT5B-NTD [2]; [4]): 0 |
| Cc1ccc(C(NC(=O)CCC2(C)N=N2)c2ccccn2)cc1 (centres unmarked) [PhP026, n1ccccc1C(c(cc2)ccc2C)NC(=O)CCC3(C)N=N3] | 0.4 | 0.4 | 0.3 | 0.4 | 0.2 | 1 | 5 |  |  |  | experimental hit status BRD4-BD1 (BRD4-BD1): 0; experimental hit status KRAS-G12D (KRas^G12D): 0; experimental hit status STAT5B-NTD (STAT5B-NTD [2]): 0 |
| CCOC(=O)c1c(NC(=O)CCC2(C)N=N2)sc2c1CCN(Cc1ccccc1)C2 [PhP002, N1=NC1(C)CCC(=O)Nc(s2)c(C(=O)OCC)c(c23)CCN(C3)Cc4ccccc4] | 0.2 | 0.1 | 0.2 | 0 | 0.1 | 0 | 0 |  |  |  | BRD4-BD1 (BRD4-BD1): 0; KRAS-G12D (KRas^G12D): 0; STAT5B-NTD (STAT5B-NTD [2]): 0 |
| CC1(CCC(=O)NC2CCc3nccn3C2)N=N1 (centres unmarked) [PhP047, N1=NC1(C)CCC(=O)NC(CC2)Cn(c23)ccn3] | 0.6 | 0.5 | 0.1 | 0 | 0 | 0 | 2.1 | 0 | 0 | 0 |  |
| Cc1cccc2nc(CNC(=O)CCC3(C)N=N3)[nH]c12 [PhP023, c1ccc(C)c(c12)[nH]c(n2)CNC(=O)CCC3(C)N=N3] | 0.3 | 0.9 | 0.7 | 0 | 0.2 | 1 | 0 |  |  |  | experimental hit status BRD4-BD1 (BRD4-BD1): 0; experimental hit status KRAS-G12D (KRas^G12D): 0; experimental hit status STAT5B-NTD (STAT5B-NTD [2]): 0 |
